Tests used:
Swiss albino mice = assay: 90-day daily oral dosing sub-chronic toxicity study (body weight, behavior, organ weight, histology); format: in vivo; conditions: for Relative organ weight, Brain / Relative organ weight, Heart / Relative organ weight, Kidneys / Relative organ weight, Liver / Relative organ weight, Lungs / Relative organ weight, Spleen: mean ± SD
Experimental: For the 90-day daily oral dosing sub-chronic toxicity study, twenty male and twenty female healthy 8-week-old Swiss albino mice were randomly selected and randomized to […] (n = 5/sex/group). Mice received free access to purified drinking water and high-fat diet (HFD) pelleted rodent chow (11.4% total fat, no. 7004, Envigo/Teklad, Madison, WI, USA) until the day before sacrifice, at which time they were fasted for 8 h and allowed only free access to drinking water. Daily doses of PsA (10, 40, 80 mg/kg body weight) were administered to the mice formulated in <5% DMSO (Mediatech Inc., Manassas, VA, USA) and <0.2% Tween 80 (Croda Inc., Princeton, NJ, USA) at a volume not exceeding 1% of body weight by metal oral gavage (2 mm diameter with stainless steel bite protector, 18-gauge, 3.81 cm long). […] The mice were observed weekly until the completion of the study. The body weights of the mice were measured in grams using a Scout^TM Pro (Ohaus Corp., Pine Brook, NJ, USA) on day 0, 4, 8, 11, 14, 21, 28, 35, 42, 49, 56, 63, 70, 77, 83, and 90 after initial treatment. On day 90, all mice were anesthetized using isoflurane (USP-vaporizer method, Matrix VIP-3000, Covetrus, Dublin, OH, USA, exposure of animals in an anesthesia chamber at 3% isoflurane vaporization rate. Exposure time 2 min). Mice were then euthanized by cervical dislocation according to the 2020 AVMA Guidelines on Euthanasia and dissected. Mice organs (brain, liver, kidney, heart, lungs, spleen) were excised and weighed for histopathological examination. The organs were stored in 10% neutral buffered formalin (Avantor Science Central, Allentown, PA, USA) for 24 h and then transferred to 70% ethanol (AAPER ALCOHOL, Shelbyville, KY, USA). This study was performed following the OECD guideline 408 for the testing of chemicals.
The experimental animals’ organs were carefully excised and quickly fixed in 10% neutral buffered formalin for 24 h before being transferred to 70% ethanol. The organs were embedded in paraffin before sectioning and staining with hematoxylin and eosin (H&E). All sectioning and staining were conducted at the AML Laboratories (Jacksonville, FL, USA). The paraffin-embedded tissues were sliced into 5 µm-thick sections before being mounted on a positively charged slide. The 5 µm-thick sections were then dewaxed using xylene, rinsed using 80–95% ethanol, and rehydrated using H2O. They were subsequently stained with H&E before being dehydrated again using 80–95% ethanol to xylene.
Results for the hematological and biochemical parameters were analyzed separately by One-way Analysis of Variance (ANOVA), followed by multiple comparisons with Dunnett’s test. All statistical analyses were performed using GraphPad Prism version 8 software (San Diego, CA, USA). Data in this study were expressed as a mean ± SD (standard deviation) and mean ± SEM (standard error of mean). A probability value of <0.05 was considered statistically significant (* p < 0.05; ** p < 0.01; and *** p < 0.001).

[1] = Qualitative tissue distribution (biodistribution) study after IP dosing; format: in vivo, Swiss albino mice; conditions: IP 125 mg/kg, 7 min after dosing
Experimental: Five µL of the IS ([…]) and 20 µL of 50, 40, 30, 20, 10, 8, and 4 µg/mL PsA standard solutions were combined with 15 µL freshly extracted blank mouse plasma. 300 µL of a 70% EtOAc/30% isopropanol mixture was added and vortexed for 30 s. Following centrifugation at 15,000× g for 10 min, the supernatant was transferred to a 2 mL Eppendorf tube for nitrogen evaporation. The residues were reconstituted in 25 µL HPLC-grade MeOH before being subjected to 30 s sonication followed by centrifugation at 15,000× g for 10 min. Afterwards, the entire sample was immediately injected for RP-HPLC analysis. The mouse plasma samples used in the PK study were subjected to the same extraction method, minus the addition of the PsA standard solutions. After weighing, each mouse organ was reconstituted in 500 µL PBS, then homogenized using the MISONIX Sonicator (Division of QSonica LLC, Newtown, CT, USA). Samples were centrifuged at 15,000× g for 10 min, and the supernatant was collected and transferred to a 2 mL Eppendorf. About 5 µL of IS (25 µL/mL) and 300 µL of a 70% EtOAc/30% isopropanol mixture were added to 100 µL of supernatant and vortexed for 30 s. Following centrifugation at 15,000× g for 10 min, the supernatant was transferred to a 2 mL Eppendorf tube and evaporated under N2. The remains were reconstituted in 40 µL HPLC-grade methanol before being subjected to 30 s sonication followed by centrifugation at 15,000× g for 10 min.
For the biodistribution study, four healthy male and two healthy female Swiss albino mice were randomly selected and placed in 2 groups (n = 3/group). The mice received free access to drinking water and pelleted regular rodent chow (Cat# 7012, Envigo/Teklad, Madison, WI, USA) until the day before experimentation, after which they were fasted for 8 h and allowed only free access to drinking water. One group was IP administered 125 mg/kg PsA formulated in PBS-DMSO (925:75) + 0.2% Tween 80 at a body weight-adjusted volume not exceeding 300 µL. […] Collected samples were immediately extracted using the described method above and analyzed using HPLC.

[2] = female, 10mg/kg daily oral 90 days
[3] = female, 40mg/kg daily oral 90 days
[4] = female, 80mg/kg daily oral 90 days
[5] = male, 10mg/kg daily oral 90 days
[6] = male, 40mg/kg daily oral 90 days
[7] = male, 80mg/kg daily oral 90 days

CC/C=C\[C@H](O)[C@H](O)C1=C(C)C(=O)[C@]2(O1)C(=O)N[C@@](OC)(C(=O)c1ccccc1)[C@@H]2O [PsA, pseurotin A]
behavioral, neuromuscular and autonomic responses (Swiss albino mice; daily oral doses over 90 days): no observable effects
Relative organ weight, Brain (Swiss albino mice; [2]): 438.5 ± 18.9
Relative organ weight, Heart (Swiss albino mice; [2]): 197.7 ± 33.5
Relative organ weight, Kidneys (Swiss albino mice; [2]): 475.9 ± 31.8
Relative organ weight, Liver (Swiss albino mice; [2]): 1218 ± 31.6
Relative organ weight, Lungs (Swiss albino mice; [2]): 211.7 ± 40.2
Relative organ weight, Spleen (Swiss albino mice; [2]): 106.3 ± 48.4
Relative organ weight, Brain (Swiss albino mice; [3]): 355.1 ± 25.2
Relative organ weight, Heart (Swiss albino mice; [3]): 186.2 ± 12.3
Relative organ weight, Kidneys (Swiss albino mice; [3]): 470.4 ± 87.8
Relative organ weight, Liver (Swiss albino mice; [3]): 1311 ± 135.7
Relative organ weight, Lungs (Swiss albino mice; [3]): 229.0 ± 37.1
Relative organ weight, Spleen (Swiss albino mice; [3]): 125.1 ± 22.6
Relative organ weight, Brain (Swiss albino mice; [4]): 376.7 ± 47.4
Relative organ weight, Heart (Swiss albino mice; [4]): 231.1 ± 24.4
Relative organ weight, Kidneys (Swiss albino mice; [4]): 461.9 ± 20.6
Relative organ weight, Liver (Swiss albino mice; [4]): 1369 ± 146.3
Relative organ weight, Lungs (Swiss albino mice; [4]): 236.9 ± 66.2
Relative organ weight, Spleen (Swiss albino mice; [4]): 109.7 ± 20.2
average heart weight versus vehicle control (Swiss albino mice; male 10 mg/kg and 40 mg/kg groups, 90 days): significant decrease
body weight versus vehicle control (Swiss albino mice; male and female, 10, 40, 80 mg/kg daily oral 90 days, sixteen time points): did not show any significant changes
Relative organ weight, Heart (Swiss albino mice; [5]): 248.1 ± 54.6
Relative organ weight, Kidneys (Swiss albino mice; [5]): 684.7 ± 41.0
Relative organ weight, Liver (Swiss albino mice; [5]): 1881 ± 134.3
Relative organ weight, Lungs (Swiss albino mice; [5]): 288.8 ± 62.4
Relative organ weight, Spleen (Swiss albino mice; [5]): 114.7 ± 21.4
Relative organ weight, Brain (Swiss albino mice; [6]): 413.6 ± 54.5
Relative organ weight, Heart (Swiss albino mice; [6]): 261.7 ± 25.2
Relative organ weight, Kidneys (Swiss albino mice; [6]): 747.5 ± 92.3
Relative organ weight, Liver (Swiss albino mice; [6]): 1869 ± 295.8
Relative organ weight, Lungs (Swiss albino mice; [6]): 302.1 ± 23.5
Relative organ weight, Spleen (Swiss albino mice; [6]): 118.5 ± 3.9
Relative organ weight, Brain (Swiss albino mice; [7]): 409.2 ± 28.3
Relative organ weight, Heart (Swiss albino mice; [7]): 320.8 ± 58.9
Relative organ weight, Kidneys (Swiss albino mice; [7]): 673.7 ± 50.1
Relative organ weight, Liver (Swiss albino mice; [7]): 1946 ± 272.4
Relative organ weight, Lungs (Swiss albino mice; [7]): 209.9 ± 61.0
Relative organ weight, Spleen (Swiss albino mice; [7]): 108.7 ± 12.1
organ histology (liver, lungs, kidneys, heart, brain) versus vehicle control (Swiss albino mice; up to 80 mg/kg, 90-day dosing, H&E): no structural or morphological differences
PsA HPLC peak in brain tissue (BBB crossing) [1]: did not display PsA peak
PsA HPLC peak in liver, kidney, heart and spleen tissue [1]: prominent PsA peak
PsA HPLC peak in plasma [1]: prominent PsA peak
